Calls of active or inactive are those of the source.
Assays:
[1] = target: T1, Protein Tat (Human immunodeficiency virus type 1 group M subtype B (isolate HXB2)(HIV-1), UniProt P04608); assay type: functional;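 note: tat binding to TAR RNA read out by fluorescence polarization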
T1 sequence (P04608 whole entry): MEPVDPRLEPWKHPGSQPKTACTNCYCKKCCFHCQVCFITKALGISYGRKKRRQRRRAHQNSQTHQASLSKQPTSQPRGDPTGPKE

[2] = target: T2, Histone-lysine N-methyltransferase NSD2 (Homo sapiens, UniProt O96028); assay type: biochemical
T2 sequence (O96028 whole entry): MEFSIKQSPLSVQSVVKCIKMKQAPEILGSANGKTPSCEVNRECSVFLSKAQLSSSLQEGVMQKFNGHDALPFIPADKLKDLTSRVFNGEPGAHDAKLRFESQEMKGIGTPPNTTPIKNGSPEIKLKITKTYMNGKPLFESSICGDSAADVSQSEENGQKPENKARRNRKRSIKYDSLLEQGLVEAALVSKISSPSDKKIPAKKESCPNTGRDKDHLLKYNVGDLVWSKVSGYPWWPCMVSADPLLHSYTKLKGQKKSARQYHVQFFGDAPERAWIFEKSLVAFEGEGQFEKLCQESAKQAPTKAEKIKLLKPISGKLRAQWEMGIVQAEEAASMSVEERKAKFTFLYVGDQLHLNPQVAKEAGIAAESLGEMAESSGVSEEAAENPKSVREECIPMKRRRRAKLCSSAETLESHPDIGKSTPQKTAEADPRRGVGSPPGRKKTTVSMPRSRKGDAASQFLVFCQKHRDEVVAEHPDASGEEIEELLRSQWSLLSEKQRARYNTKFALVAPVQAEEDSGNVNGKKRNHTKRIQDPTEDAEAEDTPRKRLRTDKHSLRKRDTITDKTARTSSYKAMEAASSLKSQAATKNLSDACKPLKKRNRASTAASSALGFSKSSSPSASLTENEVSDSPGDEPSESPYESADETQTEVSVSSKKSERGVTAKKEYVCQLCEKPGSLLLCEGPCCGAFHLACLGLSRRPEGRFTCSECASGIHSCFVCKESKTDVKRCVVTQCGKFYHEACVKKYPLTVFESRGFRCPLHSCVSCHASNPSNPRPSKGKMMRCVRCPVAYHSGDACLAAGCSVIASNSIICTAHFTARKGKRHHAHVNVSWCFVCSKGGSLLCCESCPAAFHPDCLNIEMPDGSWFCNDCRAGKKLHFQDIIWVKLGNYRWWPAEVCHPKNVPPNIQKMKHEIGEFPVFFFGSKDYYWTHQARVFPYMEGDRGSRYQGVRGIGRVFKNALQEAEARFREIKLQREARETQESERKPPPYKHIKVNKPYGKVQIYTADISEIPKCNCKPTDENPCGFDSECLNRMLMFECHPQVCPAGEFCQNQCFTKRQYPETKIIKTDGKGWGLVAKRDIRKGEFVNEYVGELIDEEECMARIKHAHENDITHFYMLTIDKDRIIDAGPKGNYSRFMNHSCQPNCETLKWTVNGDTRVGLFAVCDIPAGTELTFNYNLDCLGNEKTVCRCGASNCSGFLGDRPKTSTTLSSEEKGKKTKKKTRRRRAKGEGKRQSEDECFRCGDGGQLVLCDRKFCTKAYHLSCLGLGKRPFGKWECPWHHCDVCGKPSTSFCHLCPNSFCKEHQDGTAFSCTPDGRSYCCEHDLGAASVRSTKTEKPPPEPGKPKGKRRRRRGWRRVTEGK

[3] = target: T3, Caspase-6 (Homo sapiens, UniProt P55212); test: human caspase-6 inhibitors, dose response, biochemical, VEID-R110 fluorescence, cherry-pick (AID 720632)
T3 sequence (P55212 whole entry): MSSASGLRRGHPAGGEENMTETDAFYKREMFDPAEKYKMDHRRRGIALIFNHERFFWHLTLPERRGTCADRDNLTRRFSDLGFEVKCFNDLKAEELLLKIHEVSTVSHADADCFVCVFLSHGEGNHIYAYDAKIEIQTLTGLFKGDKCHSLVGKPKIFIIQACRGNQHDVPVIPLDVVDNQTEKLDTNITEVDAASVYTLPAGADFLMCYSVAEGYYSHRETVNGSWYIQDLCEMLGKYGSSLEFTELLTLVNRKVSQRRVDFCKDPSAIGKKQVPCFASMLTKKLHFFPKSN

[4] = target: T4, Heat shock factor protein 1 (Mus musculus, UniProt P38532); test: inhibition of MG132-induced HSE-luciferase signal, confirmation, cell-based, NIH3T3, luminescence, dose retest (AID 2382); assay type: functional;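 note: NIH3T3 fibroblasts with HSF1-driven luciferase reporter stressed by proteasome inhibitor MG132; luminescence from HSF1-driven luciferase expression after 8 hours of MG132 stress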
T4 sequence (P38532 whole entry): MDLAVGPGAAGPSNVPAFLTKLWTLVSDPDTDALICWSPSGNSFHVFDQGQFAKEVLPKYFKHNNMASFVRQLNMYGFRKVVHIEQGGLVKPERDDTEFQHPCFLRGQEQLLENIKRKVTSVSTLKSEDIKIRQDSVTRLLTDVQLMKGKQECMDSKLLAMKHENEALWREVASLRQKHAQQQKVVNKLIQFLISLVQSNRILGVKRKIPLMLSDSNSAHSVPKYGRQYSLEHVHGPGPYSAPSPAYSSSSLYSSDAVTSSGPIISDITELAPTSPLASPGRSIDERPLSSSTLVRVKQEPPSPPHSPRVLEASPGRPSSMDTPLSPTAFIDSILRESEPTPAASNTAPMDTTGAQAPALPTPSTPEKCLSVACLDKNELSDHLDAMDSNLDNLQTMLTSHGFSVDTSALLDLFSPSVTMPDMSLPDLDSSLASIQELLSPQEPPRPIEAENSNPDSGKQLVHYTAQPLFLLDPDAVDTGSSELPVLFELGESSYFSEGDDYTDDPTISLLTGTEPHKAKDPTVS

[5] = system: Streptococcus sp. 'group A'; test: growth inhibition of control SK(-) GAS strain, dose response, counter-screen for streptokinase expression inhibitor project, luminescence, kanamycin, BacTiterGlo, confirmation (AID 1900); assay type: functional, organism-based
[6] = system: Vero; test: cells; assay type: functional; conditions: Chlorocebus sabaeus
[7] = C. albicans growth with fluconazole, confirmation, fluorescence, retest (AID 2467); assay type: functional, cell-based
[8] = cells; assay type: functional, cell-based
[9] = cells; assay type: functional, cell-based; remark: listed apart in the source
[10] = target: Nonstructural protein 1 (Influenza A virus, UniProt Q194T2); assay type: functional, Influenza A virus (A/California/07/2009(H1N1))
Sequence of Nonstructural protein 1 (Q194T2 whole entry): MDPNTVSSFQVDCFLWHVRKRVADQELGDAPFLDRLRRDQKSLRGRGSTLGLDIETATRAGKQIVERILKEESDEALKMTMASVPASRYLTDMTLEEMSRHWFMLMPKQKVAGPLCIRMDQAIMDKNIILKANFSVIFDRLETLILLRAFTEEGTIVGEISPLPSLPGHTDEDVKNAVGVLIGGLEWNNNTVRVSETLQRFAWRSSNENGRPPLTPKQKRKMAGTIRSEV

[11] = NIH-3T3 fibroblast cytotoxicity, dose response, cytotoxicity control, cell-based, fluorescence, Alamar Blue, secondary assay (AID 2327); assay type: functional;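 note: NIH-3T3 mouse fibroblasts cultured with fluconazole at 8 µg/mL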
[12] = target: Heat shock protein HSP 90-alpha (Homo sapiens, UniProt P07900); assay type: functional, organism-based
[13] = system: Streptococcus; test: Group A Streptococcus viability loss, dose response, counter-screen for streptokinase expression inhibitor project, luminescence, BacTiterGlo (AID 1915); assay type: functional, organism-based;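 note: potency for reduction of bacterial viability or growth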
[14] = inhibitors of PGC1a acetylation in cells, dose response, cell-based, cherry-picked samples (AID 720514); assay type: functional;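 note: potency may reflect raised or lowered acetylation signal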
[15] = Shn3 3'UTR reporter inhibitors, dose response, cell-based, Clone20 osteoblasts, firefly luciferase, cherry-picked (AID 624132); assay type: functional;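 note: firefly luciferase luminescence from reporter carrying the Shn3 3'UTR in osteoblasts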
[16] = target: Paired box protein Pax-8 (Homo sapiens, UniProt Q06710); test: inhibitors of PAX8-driven TPO luciferase reporter, dose response, RMG-I cells, cherry-pick (AID 687027); assay type: functional, cell-based;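 note: luciferase reporter driven by Pax8 target thyroperoxidase promoter measured by SteadyGlo luminescence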
Sequence of Paired box protein Pax-8 (Q06710 whole entry): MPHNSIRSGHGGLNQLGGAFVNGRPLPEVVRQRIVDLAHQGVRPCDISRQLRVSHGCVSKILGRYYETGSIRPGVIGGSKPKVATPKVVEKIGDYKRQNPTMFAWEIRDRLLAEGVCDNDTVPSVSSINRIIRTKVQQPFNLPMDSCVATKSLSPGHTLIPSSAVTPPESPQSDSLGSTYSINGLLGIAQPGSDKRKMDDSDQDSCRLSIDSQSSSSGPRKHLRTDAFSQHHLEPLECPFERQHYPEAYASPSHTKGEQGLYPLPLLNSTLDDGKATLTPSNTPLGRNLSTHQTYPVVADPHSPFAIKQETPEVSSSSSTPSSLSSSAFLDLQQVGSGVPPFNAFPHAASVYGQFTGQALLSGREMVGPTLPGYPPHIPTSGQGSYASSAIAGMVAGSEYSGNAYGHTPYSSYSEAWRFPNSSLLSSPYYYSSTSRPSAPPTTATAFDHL

[17] = LGR2 antagonists, dose response, cell-based, HEK293, CRE-luciferase reporter, cherry pick, set 2 (AID 743343); assay type: functional;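 note: transfected cells were stimulated with diluted bursicon conditioned medium after compound addition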
[18] = HepG2 cell cytotoxicity, dose response, cytotoxicity control, plate reader, cherry-pick, antagonist series (AID 743416); assay type: functional, cell-based
[19] = HepG2 cell cytotoxicity, dose response, cytotoxicity control for Shn3 inhibitor project, CellTiter-Glo, cherry-picked (AID 624134); assay type: functional, cell-based
[20] = Fluorescence-based cell-based high throughput dose response assay for inhibitors of the interaction of nucleotide-binding oligomerization domain containing 2 (NOD2) and the receptor-interacting serine-threonine kinase 2 (RIPK2).; assay type: functional, Homo sapiens; conditions: Homo sapiens
[21] = HEK293 cell cytotoxicity, dose response, cytotoxicity control, plate reader, cherry-picked samples (AID 743446); assay type: functional, cell-based
[22] = MC4R antagonists, dose response, counter-screen for LGR2 antagonist project, cell-based, plate reader, cherry pick (AID 743444); assay type: functional;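 note: transfected HEK 293 cells stimulated with alpha-MSH peptide; potency of inhibitors of the alpha-MSH evoked signal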
[23] = A549 cell cytotoxicity, dose response, cytotoxicity control, plate reader, cherry-pick, antagonist series (AID 743412); assay type: functional, cell-based
[24] = target: T5, Rac GTPase-activating protein 1 (Homo sapiens, UniProt Q9H0H5); test: MgcRacGAP GTPase-activating activity inhibitors, confirmation, biochemical, ADP Hunter fluorescence, primary and confirmatory (AID 624330); assay type: functional
T5 sequence (Q9H0H5 whole entry): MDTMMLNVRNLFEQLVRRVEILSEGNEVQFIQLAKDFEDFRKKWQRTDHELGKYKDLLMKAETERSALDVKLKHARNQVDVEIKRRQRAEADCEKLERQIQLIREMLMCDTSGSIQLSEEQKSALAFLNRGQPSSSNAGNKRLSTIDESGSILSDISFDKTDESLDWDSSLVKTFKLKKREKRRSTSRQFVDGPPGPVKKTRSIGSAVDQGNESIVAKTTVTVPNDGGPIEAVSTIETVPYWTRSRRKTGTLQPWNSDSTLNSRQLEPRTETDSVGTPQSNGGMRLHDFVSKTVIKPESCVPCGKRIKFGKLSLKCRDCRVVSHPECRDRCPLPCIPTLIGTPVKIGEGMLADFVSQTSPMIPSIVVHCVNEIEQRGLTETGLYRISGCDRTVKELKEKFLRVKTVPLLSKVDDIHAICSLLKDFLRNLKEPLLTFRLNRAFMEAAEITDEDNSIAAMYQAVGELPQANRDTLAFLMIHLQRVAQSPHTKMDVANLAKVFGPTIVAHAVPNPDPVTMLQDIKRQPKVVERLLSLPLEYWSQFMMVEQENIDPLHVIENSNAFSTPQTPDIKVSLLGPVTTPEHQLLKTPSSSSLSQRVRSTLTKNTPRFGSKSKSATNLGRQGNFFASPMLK

[25] = control 3'UTR Renilla luciferase suppression, dose response, counter-screen for Shn3 inhibitor project, cell-based, Clone20-Shn3RL, cherry-picked (AID 624133); assay type: functional
[26] = HeLa cell cytotoxicity, dose response, cytotoxicity control for MgcRacGAP inhibitor project (AID 624300); assay type: functional
[27] = HEK293T cytotoxicity, dose response, cytotoxicity control for miR-122 modulator project, cell-based, inhibitor set, cherry-pick, set 2 (AID 720697); assay type: functional
[28] = miR-122 activators in hepatoma reporter cells, dose response, cell-based, Huh7 psiCHECK-miR122, Renilla luciferase, cherry-picked (AID 651956); assay type: functional;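 note: huh7 hepatoma cells stably carrying a psiCHECK-2 miR-122 sensor plasmid; renilla luciferase signal reporting endogenous miR-122 activity after 48 h compound exposure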

CCOc1ccc2[nH]c(=O)c(CN(Cc3ccco3)C(=O)c3ccc(Br)cc3)cc2c1
active: IC50 [1] > 100 µM

[O-][n+]1c2c([n+]([O-])c3cc(Br)ccc31)CCC2
inconclusive: IC50 [1] 8.44 µM

COc1ccccc1N=Nc1ccc(O)c2ncccc12
inactive: EC50 [11] > 160 µM
active: AC50 [2] 11.8 µM | AC50 [3] 34.5 µM | EC50 [4] 2.29 µM | EC50 [5] 1.17 µM | CC50 [6] 12.2 µM | EC50 [7] 1.28 µM | EC50 [8] 38.7 µM | EC50 [9] 102 µM | IC50 [10] 12.4 µM | AC50 [12] 3.68 µM | EC50 [13] 10.3 µM

O=C(CSc1nc2cc(Cl)ccc2s1)NCC1CCCO1 (stereo unspecified)
active: AC50 [14] 30.5 µM

CCC1CN2CCc3cc(OC)c(OC)cc3C2CC1CC1NCCc2c1[nH]c1ccc(O)cc21 (stereo unspecified)
inactive: IC50 [20] 49.8 µM
active: AC50 [15] < 0.26 µM | AC50 [16] < 0.26 µM | AC50 [17] 0.219 µM | AC50 [18] 0.601 µM | AC50 [19] 18 µM | AC50 [21] 0.153 µM | AC50 [14] 0.471 µM | AC50 [22] 0.209 µM | AC50 [23] 0.075 µM | IC50 [24] 70.2 µM | AC50 [25] 0.658 µM | CC50 [26] 1.61 µM

COc1cccc(CN2C[C@@H]3N[C@H](C2)[C@@H]3c2ccc(-c3ccccc3OC)cc2)c1
active: AC50 [14] 28.5 µM

C[C@@H]1CCCCO[C@H](CN(C)CC2CCCCC2)[C@H](C)CN([C@H](C)CO)C(=O)c2cc(NC(=O)Nc3ccc4c(c3)OCO4)ccc2O1
active: AC50 [27] 4.39 µM | AC50 [28] 16.2 µM

— ChEMBL document CHEMBL1201862, “PubChem BioAssay data set” (2004)
